Structures can show the parent of a compound that is named as a salt. Where two headings read alike, the source gives them in different places.
Tests used:
[1] = biological target: S1P3 (Homo sapiens, UniProt Q99500); experiment: Receptor binding assay, [33P]sphingosine 1-phosphate competition, S1P3 membranes, WGA SPA beads
Summary of the method: (§1)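 Competition of [33P]S1P ([…]) on CHO cell membranes with WGA SPA beads in 50 mM HEPES pH 7.5, 5 mM MgCl2, 100 mM NaCl, 0.4% fatty acid-free BSA; 60 min at RT. Triplicates normalised to total binding and nonspecific binding (1000-fold excess unlabeled S1P).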

[2] = biological target: T1, S1P1 (Homo sapiens, UniProt P21453); experiment: S1P1 internalization assay in S1P1-U2OS cells (S1P1-EGFP), cell imaging; format: cell-based; design: host or cells: U2OS (human bone osteosarcoma epithelial cells), CMV promoter, geneticin selection; conditions: 1 hour incubation
Summary of the method: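 U2OS cells stably expressing human S1P1-EGFP, plated overnight in 1% FCS medium, then serum-starved 2 h in 0.1% fatty-acid-free BSA before 1 h compound exposure at 37 °C. After PFA fixation and Hoechst staining, internalization imaged as EGFP spot count per nucleus.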
Target sequence in this assay (P21453 whole entry): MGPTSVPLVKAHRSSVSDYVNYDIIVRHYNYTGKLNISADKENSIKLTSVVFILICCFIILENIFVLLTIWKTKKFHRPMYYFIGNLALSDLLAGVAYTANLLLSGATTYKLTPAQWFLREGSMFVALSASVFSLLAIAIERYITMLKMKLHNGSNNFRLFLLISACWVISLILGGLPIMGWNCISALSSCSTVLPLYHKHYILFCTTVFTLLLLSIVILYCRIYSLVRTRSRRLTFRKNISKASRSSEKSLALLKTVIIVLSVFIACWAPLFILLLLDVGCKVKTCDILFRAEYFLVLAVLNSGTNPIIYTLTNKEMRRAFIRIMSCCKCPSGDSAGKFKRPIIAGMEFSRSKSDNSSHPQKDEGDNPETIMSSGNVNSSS

[3] = biological target: T1, S1P1; experiment: Receptor binding assay, [33P]sphingosine 1-phosphate competition, S1P1 membranes, WGA SPA beads
Summary of the method: as §1
Target sequence in this assay (P21453 whole entry, species assumed): as the sequence (P21453 whole entry) above

[4] = 384 well-plate, read-out: S1P3 binding Ki (M) (384 well-plate)
[5] = 384 well-plate, read-out: S1P1 binding Ki (M) (384 well-plate)
[6] = 96 well-plate, read-out: S1P1 binding Ki (M) (96 well-plate)

S1P3, sequence (Q99500 whole entry, species assumed): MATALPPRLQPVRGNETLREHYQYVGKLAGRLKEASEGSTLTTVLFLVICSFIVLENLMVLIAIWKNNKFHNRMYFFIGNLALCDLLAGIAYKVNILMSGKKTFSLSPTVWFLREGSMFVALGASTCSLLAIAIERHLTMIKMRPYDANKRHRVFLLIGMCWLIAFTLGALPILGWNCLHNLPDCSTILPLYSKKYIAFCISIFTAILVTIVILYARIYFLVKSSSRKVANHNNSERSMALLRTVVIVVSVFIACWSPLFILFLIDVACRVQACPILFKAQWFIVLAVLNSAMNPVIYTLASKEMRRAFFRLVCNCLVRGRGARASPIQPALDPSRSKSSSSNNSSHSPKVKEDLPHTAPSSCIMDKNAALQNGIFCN

| SMILES | Ki [1, 4] [M] | EC50 [2] [nM] | Ki [3, 5] [M] | Ki [3, 6] [M] | Ki ([1]; 96 well-plate, read-out: S1P3 binding Ki (M) (96 well-plate)) |
| --- | --- | --- | --- | --- | --- |
| COCc1cc(-c2nc(-c3cccc(CN(CCC(=O)O)C(C)C)c3)no2)ccc1-c1ccccc1C [Example 108, N-isopropyl-N-(3-{5-[2-(methoxymethyl)-2′-methylbiphenyl-4-yl]-1,2,4-oxadiazol-3-yl}benzyl)-beta-alanine, hydrochloride salt] | 1.1e-06 | 14 | 5.06e-10 | – | – |
| COCc1cc(-c2nc(-c3ccc(CN(C)CC(=O)O)cc3)no2)ccc1-c1ccccc1Cl [Example 118, N-(4-{5-[2′-chloro-2-(methoxymethyl)biphenyl-4-yl]-1,2,4-oxadiazol-3-yl}benzyl)-N-methylglycine, hydrochloride salt] | 5.67e-07 | 9.94 | 1.1e-09 | – | – |
| COCc1cc(-c2nc(-c3ccc(CN(C)CC(=O)O)c(F)c3)no2)ccc1-c1ccccc1Cl [Example 119, N-(4-{5-[2′-chloro-2-(methoxymethyl)biphenyl-4-yl]-1,2,4-oxadiazol-3-yl}-2-fluorobenzyl)-N-methylglycine, hydrochloride salt] | 3.83e-07 | 11.5 | 9.55e-10 | – | – |
| COCc1cc(-c2nc(-c3ccc(CN(C)CC(=O)O)c(F)c3)no2)ccc1-c1cccc(F)c1Cl [Example 121, N-(4-{5-[2′-chloro-3′-fluoro-2-(methoxymethyl)biphenyl-4-yl]-1,2,4-oxadiazol-3-yl}-2-fluorobenzyl)-N-methylglycine, hydrochloride salt] | 5.26e-07 | 6.56 | 1.54e-09 | – | – |
| COCc1cc(-c2nc(-c3ccc(CN(C)CC(=O)O)cc3)no2)ccc1-c1cccc(F)c1Cl [Example 122, N-(4-{5-[2′-chloro-3′-fluoro-2-(methoxymethyl)biphenyl-4-yl]-1,2,4-oxadiazol-3-yl}benzyl)-N-methylglycine, hydrochloride salt] | 2.5e-06 | 5.1 | 1.31e-09 | – | – |
| CCc1cc(-c2noc(-c3ccc(-c4ccccc4C)c(COC)c3)n2)ccc1CN(C)CC(=O)O [Example 124, 2-((2-ethyl-4-(5-(2-(methoxymethyl)-2′-methylbiphenyl-4-yl)-1,2,4-oxadiazol-3-yl)benzyl)(methyl)amino)acetic acid] | 4.1e-06 | 23.2 | 1.98e-09 | – | – |
| COCc1cc(-c2nc(-c3ccc(CN(C)CC(=O)O)c(C)c3)no2)ccc1-c1ccccc1C [Example 125, 2-((4-(5-(2-(methoxymethyl)-2′-methylbiphenyl-4-yl)-1,2,4-oxadiazol-3-yl)-2-methylbenzyl)(methyl)amino)acetic acid] | 1.92e-06 | 7.65 | 2.31e-09 | – | – |
| COCc1cc(-c2nc(-c3cc(CN(C)CC(=O)O)cc(F)c3F)no2)ccc1-c1ccccc1C [Example 126, N-(3,4-difluoro-5-{5-[2-(methoxymethyl)-2′-methylbiphenyl-4-yl]-1,2,4-oxadiazol-3-yl}benzyl)-N-methylglycine, hydrochloride salt] | 6.55e-07 | 47 | 2.88e-09 | – | – |
| COCc1cc(-c2nc(-c3ccc(CN(C)CC(=O)O)cc3)no2)ccc1-c1cc(F)ccc1C [Example 127, N-(4-{5-[5′-fluoro-2-(methoxymethyl)-2′-methylbiphenyl-4-yl]-1,2,4-oxadiazol-3-yl}benzyl)-N-methylglycine, hydrochloride salt] | 7.6e-07 | 8.68 | 1.12e-09 | – | – |
| COCc1cc(-c2nc(-c3ccc(CN(C)CC(=O)O)c(Cl)c3)no2)ccc1-c1ccccc1C [Example 128, 2-((4-(5-(2-(methoxymethyl)-2′-methylbiphenyl-4-yl)-1,2,4-oxadiazol-3-yl)-2-chlorobenzyl)(methyl)amino)acetic acid] | 5.66e-07 | 13.3 | 1.45e-09 | – | – |
| Cc1ccccc1-c1ccc(-c2nc(-c3ccc(CN(C)CC(=O)O)cc3)no2)cc1C [Example 130, N-{4-[5-(2,2′-dimethylbiphenyl-4-yl)-1,2,4-oxadiazol-3-yl]benzyl}-N-methylglycine, hydrochloride salt] | 5.38e-06 | 23.3 | 2.53e-09 | 8.34e-10 | – |
| Cc1ccccc1-c1ccc(-c2nc(-c3ccc(CN(C)CC(=O)O)c(F)c3)no2)cc1C [Example 131, N-{4-[5-(2,2′-dimethylbiphenyl-4-yl)-1,2,4-oxadiazol-3-yl]-2-fluorobenzyl}-N-methylglycine, hydrochloride salt] | 1.98e-06 | 16.2 | 1.68e-09 | – | – |
| Cc1ccccc1-c1ccc(-c2nc(-c3cccc(CN(C)CC(=O)O)c3)no2)cc1C [Example 132, N-{3-[5-(2,2′-dimethylbiphenyl-4-yl)-1,2,4-oxadiazol-3-yl]benzyl}-N-methylglycine, hydrochloride salt] | 1.64e-06 | 235 | 3.65e-09 | – | – |
| Cc1ccccc1-c1ccc(-c2nc(-c3cc(F)cc(CN(C)CC(=O)O)c3)no2)cc1C [Example 133, N-{3-[5-(2,2′-dimethylbiphenyl-4-yl)-1,2,4-oxadiazol-3-yl]-5-fluorobenzyl}-N-methylglycine, hydrochloride salt] | 4.72e-07 | 42.2 | 2.81e-09 | – | – |
| COC(C)c1cc(-c2nc(-c3ccc(CN(C)CC(=O)O)cc3)no2)ccc1-c1ccccc1C (stereo not drawn) [Example 140, N-(4-{5-[2-(1-methoxyethyl)-2′-methylbiphenyl-4-yl]-1,2,4-oxadiazol-3-yl}benzyl)-N-methylglycine, hydrochloride salt] | 3.89e-07 | 3.75 | 9.81e-10 | 1.89e-10 | 1.64e-07 |
| Cc1ccccc1-c1ccc(-c2nc(-c3ccc(CNCCCC(=O)O)cc3)no2)cc1C(F)(F)F [Example 142, 4-[(4-{5-[2′-methyl-2-(trifluoromethyl)biphenyl-4-yl]-1,2,4-oxadiazol-3-yl}benzyl)amino]butanoic acid] | 3.73e-07 | 0.802 | 5.49e-10 | – | – |
| COCc1cc(-c2nc(-c3ccc(CN(C)CC(=O)O)cc3C(F)(F)F)no2)ccc1-c1ccccc1C [Example 143, 2-((4-(5-(2-(methoxymethyl)-2′-methylbiphenyl-4-yl)-1,2,4-oxadiazol-3-yl)-3-(trifluoromethyl)benzyl)(methyl)amino)acetic acid] | 1.83e-06 | 85.5 | 2.32e-09 | – | – |
| COCc1cc(-c2nc(-c3ccc(CN(C)CC(=O)O)cc3Cl)no2)ccc1-c1ccccc1C [Example 144, 2-((4-(5-(2-(methoxymethyl)-2′-methylbiphenyl-4-yl)-1,2,4-oxadiazol-3-yl)-3-chlorobenzyl)(methyl)amino)acetic acid] | 3.55e-07 | 25.7 | 1.73e-09 | – | – |
| COCc1cc(-c2nc(-c3ccc(CN(C)CC(=O)O)cc3F)no2)ccc1-c1ccccc1C [Example 146, 2-((3-fluoro-4-(5-(2-(methoxymethyl)-2′-methylbiphenyl-4-yl)-1,2,4-oxadiazol-3-yl)benzyl)(methyl)amino)acetic acid, hydrochloride salt] | 3.68e-07 | 33.6 | 9.36e-10 | – | – |
| COCc1cc(-c2nc(-c3cc(F)c(CNCC(=O)O)c(F)c3)no2)ccc1-c1ccccc1C [Example 147, 2-(2,6-difluoro-4-(5-(2-(methoxymethyl)-2′-methylbiphenyl-4-yl)-1,2,4-oxadiazol-3-yl)benzylamino)acetic acid, hydrochloride salt] | 1.35e-07 | 1.54 | 6.95e-10 | – | – |
